From ChEMBL document CHEMBL1159054, “Cyclic diarylheptanoids as Na+-glucose cotransporter (SGLT) inhibitors from Acer nikoense” (Bioorg Med Chem Lett, 2010) come the findings set out here.

The target of assay [1] is T1, Sodium/glucose cotransporter 2 (Homo sapiens) (UniProt P31639).
T1 sequence (whole entry): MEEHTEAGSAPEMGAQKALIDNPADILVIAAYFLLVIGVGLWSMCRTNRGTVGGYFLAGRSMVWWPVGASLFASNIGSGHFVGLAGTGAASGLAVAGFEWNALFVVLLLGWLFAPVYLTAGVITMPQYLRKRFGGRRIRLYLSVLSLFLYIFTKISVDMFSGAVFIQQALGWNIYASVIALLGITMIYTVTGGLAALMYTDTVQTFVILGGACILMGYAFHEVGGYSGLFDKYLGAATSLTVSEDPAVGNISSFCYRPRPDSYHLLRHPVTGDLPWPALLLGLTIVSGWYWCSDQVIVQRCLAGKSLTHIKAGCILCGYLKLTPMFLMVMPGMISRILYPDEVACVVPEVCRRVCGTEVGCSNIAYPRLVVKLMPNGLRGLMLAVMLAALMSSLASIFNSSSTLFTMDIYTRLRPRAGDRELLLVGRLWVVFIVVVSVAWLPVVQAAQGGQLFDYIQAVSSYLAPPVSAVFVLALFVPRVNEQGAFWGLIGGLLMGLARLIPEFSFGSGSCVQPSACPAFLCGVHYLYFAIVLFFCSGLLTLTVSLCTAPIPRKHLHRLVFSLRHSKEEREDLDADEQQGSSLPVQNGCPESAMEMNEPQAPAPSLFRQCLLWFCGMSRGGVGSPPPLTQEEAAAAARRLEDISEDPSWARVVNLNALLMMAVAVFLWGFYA
In words: Inhibition of human SGLT2 expressed in COS1 cells assessed as [14C]methyl-alpha-D-glucopyranoside uptake at 50 uM. The following applies: COS-1. In kind it is cell-based.

Assay [2] addresses T2, Sodium/glucose cotransporter 1 (Homo sapiens) (UniProt P13866).
T2 sequence (whole entry): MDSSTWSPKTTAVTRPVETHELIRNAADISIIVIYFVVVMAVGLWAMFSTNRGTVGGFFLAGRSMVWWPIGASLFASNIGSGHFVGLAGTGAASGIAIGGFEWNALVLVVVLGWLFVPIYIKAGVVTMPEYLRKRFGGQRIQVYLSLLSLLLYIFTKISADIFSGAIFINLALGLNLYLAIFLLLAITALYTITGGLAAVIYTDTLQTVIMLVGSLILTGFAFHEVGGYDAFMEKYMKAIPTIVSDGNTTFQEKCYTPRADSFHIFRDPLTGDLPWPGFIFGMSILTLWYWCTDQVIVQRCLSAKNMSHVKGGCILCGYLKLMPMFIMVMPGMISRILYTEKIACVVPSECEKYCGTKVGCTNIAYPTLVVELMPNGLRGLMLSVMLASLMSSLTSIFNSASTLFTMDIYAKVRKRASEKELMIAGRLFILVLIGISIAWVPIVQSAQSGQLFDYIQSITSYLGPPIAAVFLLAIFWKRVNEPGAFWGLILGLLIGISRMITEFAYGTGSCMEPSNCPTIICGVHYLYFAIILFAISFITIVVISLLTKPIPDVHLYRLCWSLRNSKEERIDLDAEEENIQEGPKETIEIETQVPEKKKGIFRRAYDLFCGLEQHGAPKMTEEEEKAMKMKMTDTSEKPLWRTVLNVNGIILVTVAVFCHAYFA
In words: Inhibition of human SGLT1 expressed in COS1 cells assessed as [14C]methyl-alpha-D-glucopyranoside uptake at 50 uM. In kind it is cell-based. Particulars: COS-1.

Molecules are shown by their SMILES.

One may read the inhibition as the drop in the measured response relative to a control, in per cent.

`O=C1CCCCc2ccc(OCc3ccccc3)c(c2)Oc2ccc(cc2)CC1`: the results for the inhibition in assay [1] and in assay [2] were 19.8% and 3.9%, respectively.
Regarding `COc1ccc2cc1Oc1ccc(cc1)CC[C@@H](O)CCCC2`, the inhibition in assay [1] stood at 29.5%; in assay [2], 67.8%.
As for `COc1ccc2cc1Oc1ccc(cc1)CCCCC(=O)CC2`, the inhibition in assay [1] amounted to 65.4%; in assay [2], 37.7%.
Taken in the same sequence, the figures for `OC[C@H]1O[C@H](Oc2ccc3cc2Oc2ccc(cc2)CC[C@@H](O)CCCC3)[C@H](O)[C@@H](O)[C@@H]1O` were 15% and 18.3%.
The corresponding values for `Oc1ccc2cc1Oc1ccc(cc1)C/C=C/CCCC2` are 15.3% and 73.7%.
For `COc1ccc2cc1Oc1ccc(cc1)CCC(=O)CCCC2`, the inhibition in assay [1] came to 53.3%; in assay [2], 44.6%.
The corresponding values for `O=C1CCCCc2ccc(OC(=O)c3ccccc3)c(c2)Oc2ccc(cc2)CC1` are 45.2% and 1.4%.
As to `CC(C)C(=O)Oc1ccc2cc1Oc1ccc(cc1)CC[C@@H](OC(=O)C(C)C)CCCC2`, the inhibition in assay [1] is 34.3%; in assay [2] it was 20.6%.
As for `O=C(Oc1ccc2cc1Oc1ccc(cc1)CC[C@@H](OC(=O)c1ccc(Cl)cc1)CCCC2)c1ccc(Cl)cc1`, the inhibition turned out to be 16.8% in assay [1] and 15.7% in assay [2].
Take `CC(=O)Oc1ccc2cc1Oc1ccc(cc1)CCC(=O)CCCC2`: the inhibition in assay [1] amounted to 19.3%; in assay [2] it was 13.5%.
The corresponding values for `Oc1ccc2cc1Oc1ccc(cc1)CCCCCCC2` are 77.4% and 96.3%.
Regarding `O=C1CCc2ccc(cc2)Oc2cc(ccc2O)CCCCN1`, the inhibition in assay [1] worked out at 76.9%; in assay [2], 46.5%.
Consider `COc1ccc2cc1Oc1ccc(cc1)CCCCC(O)CC2` (stereo not drawn), for which the inhibition in assay [1] was 62.4%; in assay [2], 77.9%.
For the compound `O[C@H]1CCCCc2ccc(OCc3ccccc3)c(c2)Oc2ccc(cc2)CC1`, the inhibition in assay [1] was 45.3%; in assay [2] it was 31.4%.
Regarding `O=C(Oc1ccc2cc1Oc1ccc(cc1)CC[C@@H](OC(=O)c1ccccc1)CCCC2)c1ccccc1`, the inhibition in assay [1] is -9.7%; in assay [2], -1.7%.
The corresponding values for `CC(=O)Oc1ccc2cc1Oc1ccc(cc1)CC[C@@H](OC(C)=O)CCCC2` are 67.5% and 68.8%.
For the compound `Oc1ccc2cc1Oc1ccc(cc1)CCCC[C@H](O)CC2`, the inhibition was found to be 54.2% in assay [1] and 94.2% in assay [2].
The corresponding values for `Oc1ccc2cc1Oc1ccc(cc1)CC[C@H](O)CCCC2` are 33.9% and 92.7%.
Consider `O=C1CCCCc2ccc(O)c(c2)Oc2ccc(cc2)CC1`, for which the figures for the inhibition in assay [1] and in assay [2] were 67.8% and 44.9%, respectively.
